Measured values published in PMC5384001 (Scientific Reports, 2017).
Changes are numbered by the printed parent chain.

Legend:
GluD2-Lc(Y496F) = biological target: T1, GluD2-Lc(Y496F) (Rattus norvegicus, UniProt Q63226, A654T/Y496F); assay: Two-electrode voltage clamp in Xenopus oocytes, inhibition of spontaneous currents; type: cell-based; details: fraction of spontaneous current inhibited by saturating D-serine
T1 construct: the function of full-length receptors as well, we introduced them into the GluD2 lurcher mutant (GluD2-Lc); expressed in transfected cells; host or cells: Xenopus laevis oocytes injected with cRNA
T1 sequence (Q63226 24-1007 Y496F/A654T): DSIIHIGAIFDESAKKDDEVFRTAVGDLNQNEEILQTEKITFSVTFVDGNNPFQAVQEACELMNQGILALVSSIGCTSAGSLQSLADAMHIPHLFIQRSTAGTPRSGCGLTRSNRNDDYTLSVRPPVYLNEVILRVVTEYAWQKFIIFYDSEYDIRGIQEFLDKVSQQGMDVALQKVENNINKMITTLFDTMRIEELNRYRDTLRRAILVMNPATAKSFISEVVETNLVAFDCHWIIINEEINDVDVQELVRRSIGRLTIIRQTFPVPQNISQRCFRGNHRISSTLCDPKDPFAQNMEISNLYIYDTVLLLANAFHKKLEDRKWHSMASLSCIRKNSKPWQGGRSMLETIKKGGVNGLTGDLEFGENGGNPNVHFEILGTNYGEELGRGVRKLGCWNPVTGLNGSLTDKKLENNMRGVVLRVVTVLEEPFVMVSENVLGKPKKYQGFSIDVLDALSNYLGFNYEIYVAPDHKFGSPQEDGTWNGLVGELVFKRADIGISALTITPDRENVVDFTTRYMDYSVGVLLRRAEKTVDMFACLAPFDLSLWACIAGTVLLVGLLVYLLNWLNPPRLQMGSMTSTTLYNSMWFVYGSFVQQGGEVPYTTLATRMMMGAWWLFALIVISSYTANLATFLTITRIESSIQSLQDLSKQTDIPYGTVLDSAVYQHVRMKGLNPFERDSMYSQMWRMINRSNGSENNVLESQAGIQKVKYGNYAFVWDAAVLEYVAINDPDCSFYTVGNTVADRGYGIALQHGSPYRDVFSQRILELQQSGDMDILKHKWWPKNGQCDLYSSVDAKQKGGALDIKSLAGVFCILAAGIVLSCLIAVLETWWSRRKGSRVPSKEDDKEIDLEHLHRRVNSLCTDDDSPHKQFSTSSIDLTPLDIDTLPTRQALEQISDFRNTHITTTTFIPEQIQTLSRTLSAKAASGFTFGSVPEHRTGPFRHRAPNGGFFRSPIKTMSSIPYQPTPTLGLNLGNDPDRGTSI
Excerpt: (§1) All cDNAs for expression in Xenopus oocytes were cloned into the vector pSGEM[30]. Point mutants of GluD2-Lc were constructed by overlap extension PCR with mutagenic oligonucleotide primers. The GluD2-Lc-(H)GluN1 chimera was constructed by transferring the S1- and S2-encoding sequences from GluD2-LBD-(H)GluN1 to GluD2-Lc via overlap extension PCR using tail primers. The S1 and S2 sequences were transferred separately, yielding GluD2-Lc-(HS1)GluN1 and GluD2-Lc-(HS2)GluN1 constructs. GluD2-Lc-(H)GluN1 was then produced from these by another overlap extension PCR. Complementary RNA (cRNA) for injection into oocytes was synthesised from 1 μg of linearised template DNA with the mMESSAGE mMACHINE in vitro transcription kit (Ambion, Austin, TX, USA).
(§2) Oocytes were obtained by surgically removing parts of the ovaries from Xenopus laevis (Nasco, Fort Atkinson, WI, USA) anaesthetised with 1.5 g/L 3-aminobenzoic acid ethylester (Sigma, Taufkirchen, Germany). […] Oocytes were injected with 11 ng cRNA (10 ng of each cRNA for co-expression of GluN1 and GluN2A) using a nanoliter injector (WPI, Sarasota, FL, USA). Four days after cRNA injection, current responses were recorded under voltage clamp at –70 mV with a Turbo Tec-10CD amplifier (npi electronic, Tamm, Germany) controlled by Patchmaster software (HEKA, Lambrecht, Germany). Currents were filtered with a 20 Hz low-pass filter and then digitised with a sampling rate of 50 Hz. Recording electrodes were pulled from borosilicate glass (Hilgenberg, Malsfeld, Germany) with an L/M-3P-A vertical pipette puller (List-Medical), filled with 3 M KCl, and had resistances of 0.5–5 MΩ (voltage electrode) or 0.5–1.5 MΩ (current electrode). Recordings were performed in a 50 μL chamber under constant superfusion with extracellular solution at a flow rate of 3–5 mL/min. […] Finally, Ba-NFR and then NMDGR were applied again to check for reversibility.

GluD2-Lc(A686S) = biological target: T2, GluD2-Lc(A686S) (Rattus norvegicus, UniProt Q63226, A654T/A686S); assay: as above; type: cell-based; details: fraction of spontaneous current inhibited by saturating D-serine
T2 construct: the function of full-length receptors as well, we introduced them into the GluD2 lurcher mutant (GluD2-Lc); expressed in transfected cells; host or cells: Xenopus laevis oocytes injected with cRNA
T2 sequence (Q63226 24-1007 A654T/A686S): T1 sequence (Q63226 24-1007 Y496F/A654T) with F473Y, A663S
Excerpt: as §1, §2

N[C@H](CO)C(=O)O [D-serine]
D-serine efficacy Mean ± SEM (GluD2-Lc(Y496F)): 43.5 ± 2.0%
D-serine efficacy Mean ± SEM (GluD2-Lc(A686S)): 43.9 ± 0.7%
